Source: patent publication US11787825B2 (priority 2021, dated 2023)
In brackets after ≈: the same amount, converted by molar mass. Where two headings read alike, the source gives them in different places.

Assays:
physchem = conditions: 25 °C, thermodynamic from solid
[1] = fasted state simulated intestinal fluid (FaSSIF), fassif
[2] = fed state simulated intestinal fluid (FeSSIF), fessif
[3] = 0.1N HCL, 1.0% DMSO, 24-hour incubation at ambient temperature, maximum theoretical compound concentration 100 μM
[4] = 1×PBS buffer (pH 7.4), 1.0% DMSO, 24-hour incubation at ambient temperature, maximum theoretical compound concentration 100 μM

SMILES | pH 7 solubility | pH 2 solubility (pH 2) | solubility (physchem; [1]) | solubility (physchem; [2]) | pH 2 solubility [3] | pH 7 solubility [4]
CN(C)CC(=O)N(c1nn(CC(F)(F)F)c2c(-c3ccc(C#CC(C)(C)S(C)(=O)=O)nc3[C@H](Cc3cc(F)cc(F)c3)NC(=O)Cn3nc(C(F)(F)F)c4c3C(F)(F)[C@@H]3C[C@H]43)ccc(Cl)c12)S(C)(=O)=O [Compound 4, N-(4-chloro-7-(2-((S)-1-(2-((3bS,4aR)-5,5-difluoro-3-(trifluoromethyl)-3b,4,4a,5-tetrahydro-1H-cyclopropa[3,4]cyclopenta[1,2-c]pyrazol-1-yl)acetamido)-2-(3,5-difluorophenyl)ethyl)-6-(3-methyl-3-(methylsulfonyl)but-1-yn-1-yl)pyridin-3-yl)-1-(2,2,2-trifluoroethyl)-1H-indazol-3-yl)-2-(dimethylamino)-N-(methylsulfonyl)acetamide] |  |  |  | 0.006 mg/mL (≈ 5.7 µM) | 42 μM | 1 μM
CN(C)CCCC[C@@H](C(=O)N(c1nn(CC(F)(F)F)c2c(-c3ccc(C#CC(C)(C)S(C)(=O)=O)nc3[C@H](Cc3cc(F)cc(F)c3)NC(=O)Cn3nc(C(F)(F)F)c4c3C(F)(F)[C@@H]3C[C@H]43)ccc(Cl)c12)S(C)(=O)=O)N(C)C [Compound 6, (S)—N-(4-chloro-7-(2-((S)-1-(2-((3bS,4aR)-5,5-difluoro-3-(trifluoromethyl)-3b,4,4a,5-tetrahydro-1H-cyclopropa[3,4]cyclopenta[1,2-c]pyrazol-1-yl)acetamido)-2-(3,5-difluorophenyl)ethyl)-6-(3-methyl-3-(methylsulfonyl)but-1-yn-1-yl)pyridin-3-yl)-1-(2,2,2-trifluoroethyl)-1H-indazol-3-yl)-2,6-bis(dimethylamino)-N-(methylsulfonyl)hexanamide] |  |  | 0.021 mg/mL (≈ 18.2 µM) | 0.001 mg/mL (≈ 0.868 µM) | 100 μM | 9 μM
C[C@H](N)C(=O)N(c1nn(CC(F)(F)F)c2c(-c3ccc(C#CC(C)(C)S(C)(=O)=O)nc3[C@H](Cc3cc(F)cc(F)c3)NC(=O)Cn3nc(C(F)(F)F)c4c3C(F)(F)[C@@H]3C[C@H]43)ccc(Cl)c12)S(C)(=O)=O [Compound 18, (S)-2-amino-N-(4-chloro-7-(2-((S)-1-(2-((3bS,4aR)-5,5-difluoro-3-(trifluoromethyl)-3b,4,4a,5-tetrahydro-1H-cyclopropa[3,4]cyclopenta[1,2-c]pyrazol-1-yl)acetamido)-2-(3,5-difluorophenyl)ethyl)-6-(3-methyl-3-(methylsulfonyl)but-1-yn-1-yl)pyridin-3-yl)-1-(2,2,2-trifluoroethyl)-1H-indazol-3-yl)-N-(methylsulfonyl)propenamide] |  |  | 0.0005 mg/mL (≈ 0.481 µM) | 0.0004 mg/mL (≈ 0.385 µM) | 60 μM | 1 μM
CC(C)(C#Cc1ccc(-c2ccc(Cl)c3c(N(C(=O)CCCOP(=O)(O)O)S(C)(=O)=O)nn(CC(F)(F)F)c23)c([C@H](Cc2cc(F)cc(F)c2)NC(=O)Cn2nc(C(F)(F)F)c3c2C(F)(F)[C@@H]2C[C@H]32)n1)S(C)(=O)=O [Compound 27, 4-(N-(4-chloro-7-(2-((S)-1-(2-((3bS,4aR)-5,5-difluoro-3-(trifluoromethyl)-3b,4,4a,5-tetrahydro-1H-cyclopropa[3,4]cyclopenta[1,2-c]pyrazol-1-yl)acetamido)-2-(3,5-difluorophenyl)ethyl)-6-(3-methyl-3-(methylsulfonyl)but-1-yn-1-yl)pyridin-3-yl)-1-(2,2,2-trifluoroethyl)-1H-indazol-3-yl)methylsulfonamido)-4-oxobutyl dihydrogen phosphate] |  |  | 0.19 mg/mL | 0.45 mg/mL | 1 μM | 26 μM

Continued, values first:

pH 7 solubility | pH 2 solubility (pH 2) | solubility (physchem; [1]) | solubility (physchem; [2]) | pH 2 solubility [3] | pH 7 solubility [4] | SMILES
1/86 μM | 1/86 μM | 0.321 mg/mL (≈ 301 µM) | 0.045 mg/mL (≈ 42.2 µM) |  |  | CC(C)(C#Cc1ccc(-c2ccc(Cl)c3c(N(C(=O)/C=C/C(=O)O)S(C)(=O)=O)nn(CC(F)(F)F)c23)c([C@H](Cc2cc(F)cc(F)c2)NC(=O)Cn2nc(C(F)(F)F)c3c2C(F)(F)[C@@H]2C[C@H]32)n1)S(C)(=O)=O [Compound 1, (E)-4-(N-(4-chloro-7-(2-((S)-1-(2-((3bS,4aR)-5,5-difluoro-3-(trifluoromethyl)-3b,4,4a,5-tetrahydro-1H-cyclopropa[3,4]cyclopenta[1,2-c]pyrazol-1-yl)acetamido)-2-(3,5-difluorophenyl)ethyl)-6-(3-methyl-3-(methylsulfonyl)but-1-yn-1-yl)pyridin-3-yl)-1-(2,2,2-trifluoroethyl)-1H-indazol-3-yl)methylsulfonamido)-4-oxobut-2-enoic acid]
1/95 μM | 1/95 μM | 0.81 mg/mL (≈ 686 µM) | 0.655 mg/mL (≈ 554 µM) |  |  | CC(C)(C#Cc1ccc(-c2ccc(Cl)c3c(N(C(=O)/C=C/C(=O)N[C@@H](CC(=O)O)C(=O)O)S(C)(=O)=O)nn(CC(F)(F)F)c23)c([C@H](Cc2cc(F)cc(F)c2)NC(=O)Cn2nc(C(F)(F)F)c3c2C(F)(F)[C@@H]2C[C@H]32)n1)S(C)(=O)=O [Compound 2, ((E)-4-(N-(4-chloro-7-(2-((S)-1-(2-((3bS,4aR)-5,5-difluoro-3-(trifluoromethyl)-3b,4,4a,5-tetrahydro-1H-cyclopropa[3,4]cyclopenta[1,2-c]pyrazolyl)acetamido)-2-(3,5-difluorophenyl)ethyl)-6-(3-methyl-3-(methylsulfonyl)but-1-ynyl)pyridin-3-yl)-1-(2,2,2-trifluoroethyl)-1H-indazol-3-yl)methylsulfonamido)-4-oxobutenoyl)-L-aspartic acid]
 |  |  | 0.0002 mg/mL (≈ 0.178 µM) | 100 μM | 27 μM | CC(C)(C#Cc1ccc(-c2ccc(Cl)c3c(N(C(=O)[C@@H](N)CCCNC(=N)N)S(C)(=O)=O)nn(CC(F)(F)F)c23)c([C@H](Cc2cc(F)cc(F)c2)NC(=O)Cn2nc(C(F)(F)F)c3c2C(F)(F)[C@@H]2C[C@H]32)n1)S(C)(=O)=O [Compound 22, 2-amino-N-(4-chloro-7-(2-((S)-1-(2-((3bS,4aR)-5,5-difluoro-3-(trifluoromethyl)-3b,4,4a,5-tetrahydro-1H-cyclopropa[3,4]cyclopenta[1,2-c]pyrazolyl)acetamido)-2-(3,5-difluorophenyl)ethyl)-6-(3-methyl-3-(methylsulfonyl)but-1-ynyl)pyridin-3-yl)-1-(2,2,2-trifluoroethyl)-1H-indazol-3-yl)-5-guanidino-N-(methylsulfonyl)pentanamide]
 |  | 0.268 mg/mL (≈ 225 µM) | 0.13 mg/mL (≈ 109 µM) | 2 μM | 92 μM | CC(C)(C#Cc1ccc(-c2ccc(Cl)c3c(N(C(=O)CCCC(=O)OCOP(=O)(O)O)S(C)(=O)=O)nn(CC(F)(F)F)c23)c([C@H](Cc2cc(F)cc(F)c2)NC(=O)Cn2nc(C(F)(F)F)c3c2C(F)(F)[C@@H]2C[C@H]32)n1)S(C)(=O)=O [Compound 29, (phosphonooxy)methyl 5-(N-(4-chloro-7-(2-((S)-1-(2-((3bS,4aR)-5,5-difluoro-3-(trifluoromethyl)-3b,4,4a,5-tetrahydro-1H-cyclopropa[3,4]cyclopenta[1,2-c]pyrazol-1-yl)acetamido)-2-(3,5-difluorophenyl)ethyl)-6-(3-methyl-3-(methylsulfonyl)but-1-yn-1-yl)pyridin-3-yl)-1-(2,2,2-trifluoroethyl)-1H-indazol-3-yl)methylsulfonamido)-5-oxopentanoate]
